{
  "source": "patent US11225469B2",
  "about": "“Inhibitors of phosphoglycerate dehydrogenase (PHGDH) and uses thereof” (Whitehead Institute for Biomedical Research, priority 2015, dated 2022)",
  "key": {"GPD1L": {"target": "GPD1L (Homo sapiens (Human), UniProt Q8N335)", "sequence (Q8N335 whole entry)": "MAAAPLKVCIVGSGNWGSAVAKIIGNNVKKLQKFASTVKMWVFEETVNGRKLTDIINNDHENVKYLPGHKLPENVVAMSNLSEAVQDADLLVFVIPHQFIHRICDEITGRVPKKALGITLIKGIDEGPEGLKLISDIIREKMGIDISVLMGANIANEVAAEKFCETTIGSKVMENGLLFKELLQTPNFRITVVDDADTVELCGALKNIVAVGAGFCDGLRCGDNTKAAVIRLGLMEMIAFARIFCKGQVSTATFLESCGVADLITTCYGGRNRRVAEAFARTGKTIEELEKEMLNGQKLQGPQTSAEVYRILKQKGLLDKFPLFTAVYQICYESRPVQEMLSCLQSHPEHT", "assay": "Counter-screen against GPD1L", "format": "biochemical", "settings": "Table E11", "experimental": "GAPDH substrate buffer contained 210 mM Tris pH 7.4, 2.5 mM NaH2PO4 pH 7.4, 2 mM DL-Glyceraldehyde 3-phosphate, 1.75 mM MgCl2, 0.01 mM NAD+, 0.11 mM resazurin, 0.2 mg/mL BSA, and 0.01% Tween-20. GAPDH enzyme buffer contained 50 mM Tris pH 7.4, 100 mM NaCl, 0.02 mM TCEP, 0.01 mM EDTA, 0.1 mg/mL BSA, 0.42 mg/mL diaphorase, and 2.5 nM GAPDH. The GAPDH, GPD1, and GPD1L assays were run in 384-well plates using the same protocol and readout as the PHGDH assay. […] GPD1 enzyme buffer contained 50 mM Tris pH 7.4, 100 mM NaCl, 0.08 mM TCEP, 0.4 mg/mL BSA, 0.03 μM EDTA, and 0.8 nM GPD1. 70 μL of substrate buffer were mixed with 10 μL enzyme buffer. GPD1L substrate buffer contained 200 mM Tris pH 7.4, 0.05 mM sn-G3-P, 2 mM MgCl2, 0.04 mM NAD+, 0.11 mM resazurin, 0.1 mg/mL BSA, and 0.02% Tween-20. GPD1L enzyme buffer contained 50 mM Tris pH 7.4, 100 mM NaCl, 0.02 mM TCEP, 0.42 mg/mL diaphorase, 0.1 mg/mL BSA, 0.008 μM EDTA, and 16 nM GPD1L. 40 μL of substrate buffer were mixed with 40 μL of enzyme buffer.\nThe GAPDH and GPD1L assays were read using the same protocol as the PHGDH assay. The GPD1 assay was read using loss of NADH fluorescence (λex=340 nm and λem=460 nm)."}, "[1]": {"system": "PHGDH-independent cell lines (ZR-75-1, SK-MEL-2)", "assay": "Cytotoxicity (Cell Titer-Glo), other PHGDH-independent cell lines", "format": "cell-based, human", "experimental": "Knockdown of PHGDH is selectively toxic towards PHGDH-dependent cell lines, and minimally toxic towards PHGDH-independent cell lines. […] Cell count was determined by quantitating the amount of ATP present with CellTitreGlo® measurements 96 hours after dosage.\nCells were seeded in white 96-well plates (Greiner) at a density of 2000 cells/well (MDA-MB-468, BT-20, MT-3) or 1000 cells/well (all other cell lines) and allowed to attach for 24 hours. Compounds were prepared in DMSO and dispensed using an HP D300 compound dispenser. Cell viability was assessed with Cell Titer-Glo (Promega) at four days following treatment and luminescence measured with a SpectraMax M5 Plate Reader (Molecular Devices). Luminescence was normalized to an untreated control in identical medium. For rescue experiments, RPMI was supplemented with 40 μM adenosine, uridine, guanosine, cytidine, deoxyadenosine, thymidine, deoxyguanosine, and deoxycytidine and the medium was replaced daily."}, "MDA-MB-468 cells": {"system": "MDA-MB-468 cells", "assay": "Metabolite profiling and 13C labeling in MDA-MB-468 cells (LC-MS)", "format": "cell-based, human", "experimental": "To track the effects of PHGDH inhibition on glycolysis and serine biosynthesis, MDA-MB-231 and MDA-MB-468 cells were fed universally labeled carbon-13 glucose and the intracellular ratio of labeled to unlabeled glucose was measured at the times indicated in FIG. 3E.\nCells were evenly seeded at 400,000 cells per well of a 6-well plate and allowed to attach for 24 hours. Prior to all labeling experiments, cells were pretreated with 10 μM compound or an equivalent volume of DMSO in RPMI for 1 hour. For steady-state metabolite concentrations, cells were washed with PBS prior to pretreatment and treatment in RPMI lacking serine and glycine. For labeling experiments, U-^13C-glucose, U-^13C-serine, or U-^13C-glycine replaced the corresponding unlabeled RPMI component. Cells were washed in 4° C. 0.9% (w/v) NaCl in LCMS-grade water and extracted in 1 mL/well of 80:20 (v/v) methanol:water with 0.01 ng/mL Val-d8 and Phe-d8 as internal extraction standards. The extraction solvent was dried under nitrogen gas and metabolite samples were stored at −80° C. until analysis. Triplicate identically seeded wells were trypsinzed and analyzed with a Multisizer Coulter Counter (Beckman Coulter) to obtain cell counts and total cell volumes for normalization.\nDried metabolites were resuspended in 100 μL water, centrifuged at 13,000×g at 4° C. for 10 minutes, and the supernatant recovered for analysis. Chromatographic separation was achieved by injecting 1 pi of sample on a SeQuant ZIC-pHILIC Polymeric column (2.1 3 150 mm […], EMD Millipore). Flow rate was set to 0.1 ml per minute, column compartment was set to 25° C., and autosampler sample tray was set to 4° C. Mobile Phase A consisted of 20 mM ammonium carbonate, 0.1% ammonium hydroxide. Mobile Phase B was 100% acetonitrile. The mobile phase gradient (% B) was as follows: 0 min 80%, 30 min 20%, 31 min 80%, 42 min 80%. All mobile phase was introduced into the ionization source set with the following parameters: sheath gas=40, auxiliary gas=15, sweep gas=5, spray voltage=−3.1 kV or +3.0 kV, capillary temperature=275° C., S-lens RF level=40, probe temperature=350° C. Metabolites were monitored using a polarity-switching full-scan method and identified by accurate mass (±20 ppm) and retention time within 15 seconds of a previously run pure standard. Metabolite peaks were identified and integrated with Xcalibur v.2.2 software (Thermo Fisher Scientific) and normalized to internal standard and to total cell volume, m/z ratios for stable isotopically labeled metabolites were obtained from IsoMETLIN (See, e.g., Cho, K. et al. “isoMETLIN: a database for isotope-based metabolomics.” Anal Chem 86, 9358-9361 (2014)) and corrected for natural abundance."}, "[2]": {"assay": "Body weight of treated xenograft mice", "format": "in vivo, mouse", "settings": "24-day treatment", "experimental": "Female NOD.CB17-Prkdc^scid/J mice, 6-8 weeks old, were obtained from Jackson Laboratories. All animals were provided with food ad libitum for the duration for the duration of the experiment. The animals were allocated randomly for induction with MDA-MB-231 or MDA-MB-468 tumors and tumor group was assigned blindly. 500,000 MDA-MB-231 or MDA-MB-468 cells were injected into the 4th mammary fat pad of each mouse. After 30 days, the tumors were palpable, and the mice were pooled by tumor type and divided randomly to two groups, which were assigned blindly to vehicle or NCT-503 treatment. […] Caliper measurements were obtained twice weekly and tumor volumes were calculated with the modified ellipsoid formula: volume=0.5×width^2×length."}, "[3]": {"system": "serine biosynthetic pathway", "assay": "Labeled serine in brain after tail vein injection of 13C glucose", "format": "in vivo, mouse", "settings": "35 mg/kg", "experimental": "The mice were sacrificed at the indicated times, and the fraction of labeled serine in the brain was determined by LC-MS and normalized to the fraction of labeled lactate (FIG. 4J)."}},
  "note": "pIC50: −log10 of the molar value.",
  "data": [
    {"smiles": "Cc1cc(C)nc(NC(=S)N2CCN(Cc3ccc(C(F)(F)F)cc3)CC2)c1", "note": "[Compound 267, N-(4,6-dimethylpyridin-2-yl)-4-(4-(trifluoromethyl)benzyl)piperazine-1-carbothioamide]", "values": [
      {"measurement": "pIC50", "setting": "GPD1L", "result": "≤ 4.00"},
      {"measurement": "toxicity", "setting": "[1]", "result": "no toxicity"},
      {"measurement": "intracellular glucose concentration", "setting": "MDA-MB-468 cells", "result": "did not change"},
      {"measurement": "incorporation of 13C from exogenous U-13C-serine into AMP and dTMP", "setting": "MDA-MB-468 cells; treatment for 4 hours", "result": "decreased"},
      {"measurement": "reduction of labeled (glucose-derived) intracellular serine", "setting": "MDA-MB-468 cells; universally labeled carbon-13 glucose", "result": "> 75", "unit": "%"},
      {"measurement": "reversibility of inhibition of serine synthesis in cells", "setting": "MDA-MB-468 cells; washout", "result": "reversible"},
      {"measurement": "body weight of mice", "setting": "[2]", "result": "did not lose weight"},
      {"measurement": "incorporation of carbon-13 from glucose into serine in the brain", "setting": "[3]", "result": "block incorporation"}
    ]}
  ]
}
